Laboratory results reported in patent publication US11358936B2, “Lysyl oxidase-like 2 inhibitors and uses thereof” (PharmAkea, Inc., priority 2015, dated 2022).
pIC50: −log10 of the molar value. Structures can show the parent of a compound that is named as a salt.

biological target: human LOXL2 (Homo sapiens (Human), UniProt Q9Y4K0); assay: Human LOXL2 Amine Oxidase Activity Assay (Amplex Red fluorescence); assay type: biochemical; settings: concentrated conditioned media from CHO cells stably expressing human LOXL2; 2 h at 37° C. preincubation; DAP substrate; read-out: IC50
Sequence (Q9Y4K0 26-774): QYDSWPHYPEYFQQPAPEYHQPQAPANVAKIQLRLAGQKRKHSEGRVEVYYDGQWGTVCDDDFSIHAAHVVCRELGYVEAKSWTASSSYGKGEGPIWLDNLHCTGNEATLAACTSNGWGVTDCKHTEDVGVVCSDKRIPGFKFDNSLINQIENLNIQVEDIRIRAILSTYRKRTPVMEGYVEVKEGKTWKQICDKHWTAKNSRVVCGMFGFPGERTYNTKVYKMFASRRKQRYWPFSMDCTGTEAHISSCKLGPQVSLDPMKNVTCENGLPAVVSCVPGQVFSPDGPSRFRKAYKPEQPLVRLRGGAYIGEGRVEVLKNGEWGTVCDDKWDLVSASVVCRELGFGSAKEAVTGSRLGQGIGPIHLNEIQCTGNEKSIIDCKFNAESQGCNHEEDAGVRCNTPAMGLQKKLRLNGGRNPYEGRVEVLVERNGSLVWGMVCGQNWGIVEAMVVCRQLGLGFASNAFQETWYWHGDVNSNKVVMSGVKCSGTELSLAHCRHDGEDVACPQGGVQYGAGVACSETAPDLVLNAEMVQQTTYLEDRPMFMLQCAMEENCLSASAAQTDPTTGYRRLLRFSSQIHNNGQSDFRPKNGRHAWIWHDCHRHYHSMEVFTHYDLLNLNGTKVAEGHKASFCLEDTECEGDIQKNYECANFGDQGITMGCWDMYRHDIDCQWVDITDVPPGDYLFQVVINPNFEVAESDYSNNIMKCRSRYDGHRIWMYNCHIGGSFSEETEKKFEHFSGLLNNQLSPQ
Procedure: LOXL2 amine oxidase activity is evaluated by measuring Amplex Red fluorescence using 10-20× concentrated conditioned media from CHO cells stably expressing human LOXL2. To assay for amine oxidase activity, 10 μL of the concentrated conditioned media is incubated with 2 μL of test compound in DMSO and 73 μL Assay Buffer (50 mM Borate Buffer, pH8) for 2 h at 37° C. After the 2 h incubation, 5 μl of 10 mM 1,5-Diaminopentane (DAP) diluted in Assay Buffer and 10 μl of Amplex Red Mix (8.5 μl Assay Buffer+0.5 μl of 10 mM Amplex Red+1 μl of 500 U/ml Horseradish Peroxidase) are added and the plate mixed and immediately placed on the FlexStaion for fluorescence measurements. Fluorescence is read in kinetic mode every 2 min for 1 hour at excitation=544 and emission=590. The amine oxidase activity is calculated from the slope of the linear portion of the curve.

pIC50	Compound
< 6.00	CN(C)c1cc(CN)cc(Oc2cccc(Oc3ccccc3)c2)n1 [Compound 3-1, 4-(Aminomethyl)-N,N-dimethyl-6-(3-phenoxyphenoxy)pyridin-2-amine hydrochloride]
> 6.52	Cc1cc2c(Oc3cc(CN)ccn3)cccc2n1Cc1ccc(F)cc1F [Compound 2-11, (2-((1-(2,4-Difluorobenzyl)-2-methyl-1H-indol-4-yl)oxy)pyridin-4-yl)methanamine trifluoroacetate]
6.00 to 6.52	NCc1ccnc(Oc2ccc(C(=O)O)cc2)c1 [Compound 2-9, 4-((4-(Aminomethyl)pyridin-2-yl)oxy)benzoic acid hydrochloride]
> 6.52	CN(C(=O)Cn1ccc2c(Oc3cc(CN)ccn3)cccc21)c1ccccc1 [Compound 2-30, 2-(4-((4-(Aminomethyl)pyridin-2-yl)oxy)-1H-indol-1-yl)-N-methyl-N-phenylacetamide hydrochloride]
> 6.52	NCc1ccnc(Oc2cccc3c2ccn3-c2nc3ccc(F)cc3s2)c1 [Compound 2-21, (2-((1-(6-Fluorobenzo[d]thiazol-2-yl)-1H-indol-4-yl)oxy)pyridin-4-yl)methanamine hydrochloride]
> 6.52	NCc1ccnc(Oc2cccc3c2ccn3Cc2ccc3ccccc3n2)c1 [Compound 2-16, (2-((1-(Quinolin-2-ylmethyl)-1H-indol-4-yl)oxy)pyridin-4-yl)methanamine hydrochloride]
> 6.52	Cc1cn(Cc2ccc(F)cc2F)c2cccc(Oc3cc(CN)ccn3)c12 [Compound 2-12, (2-((1-(2,4-Difluorobenzyl)-3-methyl-1H-indol-4-yl)oxy)pyridin-4-yl)methanamine trifluoroacetate]
6.00 to 6.52	Cc1ccc(C(=O)Nc2cc(CN)ccn2)c(F)c1 [Compound 2-42, N-(4-(Aminomethyl)pyridin-2-yl)-2-fluoro-4-methylbenzamide trifluoroacetate]

Further lines, the compound ahead of its results:

Compound	pIC50
NCc1ccnc(Oc2cccc(C(=O)NCc3ccc(Br)cc3)c2)c1 [Compound 1-32, 3-((4-(Aminomethyl)pyridin-2-yl)oxy)-yl)-(4-bromobenzyl)benzamide hydrochloride]	> 6.52
NCc1ccnc(Oc2cccc(C(=O)Nc3ccc(Br)cc3)c2)c1 [Compound 1-25, 3-((4-(Aminomethyl)pyridin-2-yl)oxy)-N-(4-bromophenyl)benzamide hydrochloride]	> 6.52
NCc1ccnc(Oc2ccc(C(=O)NCc3ccccc3)cc2)c1 [Compound 1-14, 4-((4-(Aminomethyl)pyridin-2-yl)oxy)-N-benzylbenzamide hydrochloride]	> 6.52
NCc1ccnc(Oc2cccc(C(=O)NCc3cccc(C(=O)O)c3)c2)c1 [Compound 1-35, 3-((3-((4-Aminomethyl)pyridin-2-yl)oxy)benzamido)methyl)benzoic acid hydrochloride]	> 6.52
COc1ccc(NC(=O)c2cccc(Oc3cc(CN)ccn3)c2)cc1 [Compound 1-20, 3-((4-Aminomethyl)pyridin-2-yl)oxy)-N-(4-methoxyphenyl)benzamide hydrochloride]	> 6.52
NCc1ccnc(Cl)c1 [Compound 4-5, 2-Chloro-4-(aminomethyl)pyridine]	> 6.52
NCc1ccnc(-c2ccc(C(=O)O)cc2)c1 [Compound 2-6, 4-(4-Aminomethyl)pyridin-2-yl)benzoic acid trifluoroacetate]	6.00 to 6.52
NCc1ccnc(Oc2ccccc2C(F)(F)F)c1 [Compound 4-9, 2-(2-Trifluoromethylphenoxy)-4-(aminomethyl)pyridine]	> 6.52
NCc1ccnc(Oc2ccc(C(=O)N3CCC(O)(C(F)(F)F)C3)cc2)c1 (racemic) [Compound 1-12, Racemic-4-((4-aminomethyl)pyridin-2-yl)oxy)phenyl)(3-hydroxy-3-(trifluoromethyl)pyrrolidin-1-yl)methanone hydrochloride]	> 6.52
CCOC(=O)c1cccc(NC(=O)c2cccc(Oc3cc(CN)ccn3)c2)c1 [Compound 1-27, Ethyl 3-(3-((4-(aminomethyl)pyridin-2-yl)oxy)benzamido)benzoate hydrochloride]	> 6.52
